Laboratory results as given in patent US10172914B2, “Combination” (Genesis Pharma SA, priority 2015, dated 2019).

Columns and labels:
[1] = system: Rabbit Model of Acute Myocardial Infarction Injury; test: Rabbit ischemia-reperfusion model, exenatide and potassium canrenoate, infarct size (Example 3); type: in vivo, New Zealand White rabbits; settings: for IF/AAR: mean ± SEM, exenatide 0.15 μg/Kg and/or P. canrenoate 1 mg/Kg IV bolus 15 min before reperfusion, 30 min ischemia, 180 min reperfusion
[2] = system: Mouse Model of Acute Myocardial Infarction Injury; test: Mouse ischemia-reperfusion model, mono-, double and triple therapies, infarct size (Example 5); type: in vivo, C57BL/6 mice; settings: for IF/AAR: mean ± SEM
Protocol: The test/control articles were given intravenously, under general anaesthesia, in order to mimic the expected route of administration in the clinical setting of acute myocardial infarction and primary percutaneous coronary intervention.
The study followed a predetermined placebo controlled design. […] In all cases, treatments (intravenous bolus administration of saline or test articles or their combinations) were performed 20 min after the onset of ischemia (10 min before the initiation of reperfusion). The experiments were terminated 2 h post-reperfusion (end of study); irreversible myocardial injury (infarct size by histomorphometry) at this time-point was evaluated, and was the primary-end-point of the study.
Mice were anaesthetized by intraperitoneal injection (0.01 ml/Kg) with a combination of ketamine, xylazine and atropine (final doses of ketamine, xylazine and atropine were 100, 20 and 0.6 mg/Kg, respectively). Anaesthetic depth was evaluated by loss of pedal reflex to toe-pinch stimulus and breathing rate. A tracheotomy was performed for artificial respiration at 120-150 breaths/min and positive end-expiratory pressure 2.0 (0.2 ml of total tidal volume; Flexivent rodent ventilator, Scireq, Montreal, ON, Canada). A thoracotomy was then performed between the fourth and fifth ribs and the pericardium carefully retracted to visualize the left anterior descending (LAD), which was ligated using an 8-0 prolene monofilament polypropylene suture placed 1 mm below the tip of the left auricle. […] After the ischemic period, the ligature was released allowing reperfusion of myocardium. Throughout experiments, body temperature was maintained at 37±0.5° C. by way of a heating pad and monitored via a thermocouple inserted rectally.
After reperfusion, animals were sacrificed with an intraperitoneal injection of the ketamine (200 mg/Kg) and xylazine (50 mg/Kg) anesthetic mixture (0.02 ml/Kg) hearts were rapidly excited from mice and directly cannulated and washed with 2.5 ml of saline heparin 1% for blood removal. Five ml of 1% TTC phosphate buffer 37° C. were infused into the coronary circulation; the tissue was incubated for 5 min in the same buffer. Evans Blue 1% diluted in distilled water (2.5 ml) was the infused into the heart. Hearts were kept at −20° C. for 24 hours and then sliced in 1 mm sections parallel to the atrioventricular groove, and then fixed in 4% formalin overnight. […] The areas of myocardial tissue at risk and infarcted were automatically transformed into volumes. Infarct and risk area volumes were expressed in cm^3. For each slide, the AAR was expressed as a percentage of the LV area (AAR/LV), and the IF was expressed as a percentage of the AAR (IF/AAR). In all cases, quantitative histomorphometry was performed by personnel blinded to the treatment assignment/study-design.
All results are presented as mean+SEM. Comparisons of numeric variables among the groups were analyzed using an one-way analysis of variance (ANOVA) model with Bonferroni correction and with Tukey post hoc analysis. […] A calculated P-value of less than 0.05 was considered to be statistically significant.

[3] = exenatide 0.05 μg/Kg, cyclosporine 0.15 mg/Kg, P. canrenoate 1 mg/Kg, alone or in double/triple combination
[4] = monotherapy doses: exenatide 0.001 μg/Kg, cyclosporine 0.001 mg/Kg, P. canrenoate 0.03 mg/Kg
[5] = monotherapy doses: exenatide 0.005 μg/Kg, cyclosporine 0.01 mg/Kg, P. canrenoate 0.3 mg/Kg
[6] = monotherapy doses: exenatide 0.15 μg/Kg, cyclosporine 0.5 mg/Kg, P. canrenoate 10 mg/Kg

In the case of `C[C@]12CCC(=O)C=C1C=C[C@@H]1[C@@H]2CC[C@@]2(C)[C@H]1CC[C@@]2(O)CCC(=O)[O-].[K+]` [P. CANRENOATE, potassium 3-[(8R,9S,10R,13S,14S,17R)-17-hydroxy-10,13-dimethyl-3-oxo-2,8,9,11,12,14,15,16 octahydro-1H-cyclopenta[a]phenanthren-17-yl]propanoate], the “reduction of the extent of infarct” value ([1]; compared with the control group, exenatide 0.15 μg/Kg and/or potassium canrenoate 1 mg/Kg) is reported as 30.5%, the “Different (%) in IF/AAR from Control” value ([1]; exenatide 0.15 μg/Kg and/or P. canrenoate 1 mg/Kg) is reported as −30.5% and the IF/AAR [1] is reported as 34.36 ± 2.83%. For the same molecule, the IF/AAR ([1]; listed as potassium canrenoate) was 34.36±2.83%, the “reduction of infarct size / extent of infarct” value ([2]; compared with the control group, exenatide 0.05 μg/kg, cyclosporine 0.15 mg/kg, potassium canrenoate 1 mg/kg, alone or combined) was 30% and the “reduction of infarct size” value ([2]; compared with the control group, potassium canrenoate 10 mg/kg monotherapy) was 58.9%. The “Different (%) in IF/AAR from Control” value [2, 3] was −30%, the IF/AAR [2, 3] was 33.2 ± 2.4% and the IF/AAR ([2]; exenatide 0.05 μg/Kg, cyclosporine 0.15 mg/Kg, P. canrenoate 1 mg/Kg, alone or in double/triple combination, listed as potassium canrenoate) was 33.2±2.4%. It also gave an IF/AAR [2, 4] of 46 ± 2.5%, an IF/AAR [2, 5] of 44 ± 3.2% and an IF/AAR [2, 6] of 19.5 ± 2.5%. The IF/AAR ([2]; monotherapy doses: exenatide 0.15 μg/Kg, cyclosporine 0.5 mg/Kg, P. canrenoate 10 mg/Kg, listed as potassium canrenoate) was 19.5±2.5%, the “Different (%) in IF/AAR from Control” value [2, 4] was −3% and the “Different (%) in IF/AAR from Control” value [2, 5] was −7.2%. For the same molecule, the “Different (%) in IF/AAR from Control” value [2, 6] was −58.9%.
